# Assay results published in US11725011B2, “Bicyclic urea kinase inhibitors and uses thereof” (The Broad Institute, Inc., priority 2016, dated 2023).
# Experiments:
# Assay in all cases: KINOMEscan
# Type in all cases: binding
# Settings in all cases: 1 uM
# ERK4 = ERK4 (Homo sapiens (Human), UniProt P31152)
# FGFR3 = FGFR3 (Homo sapiens (Human), UniProt P22607)
# PLK4 = PLK4 (Homo sapiens (Human), UniProt O00444)
# TRKB = TRKB (Homo sapiens (Human), UniProt Q16620)
# FER = FER (Homo sapiens (Human), UniProt P16591)
# ABL1-phosphorylated = ABL1-phosphorylated (Homo sapiens (Human), UniProt P00519)
# PRKD1 = PRKD1 (Homo sapiens (Human), UniProt Q15139)
# GRK7 = GRK7 (Homo sapiens (Human), UniProt Q8WTQ7)
# LATS1 = LATS1 (Homo sapiens (Human), UniProt O95835)
# MRCKA = MRCKA (Homo sapiens (Human), UniProt Q5VT25)
# MRCKA, sequence (Q5VT25 whole entry): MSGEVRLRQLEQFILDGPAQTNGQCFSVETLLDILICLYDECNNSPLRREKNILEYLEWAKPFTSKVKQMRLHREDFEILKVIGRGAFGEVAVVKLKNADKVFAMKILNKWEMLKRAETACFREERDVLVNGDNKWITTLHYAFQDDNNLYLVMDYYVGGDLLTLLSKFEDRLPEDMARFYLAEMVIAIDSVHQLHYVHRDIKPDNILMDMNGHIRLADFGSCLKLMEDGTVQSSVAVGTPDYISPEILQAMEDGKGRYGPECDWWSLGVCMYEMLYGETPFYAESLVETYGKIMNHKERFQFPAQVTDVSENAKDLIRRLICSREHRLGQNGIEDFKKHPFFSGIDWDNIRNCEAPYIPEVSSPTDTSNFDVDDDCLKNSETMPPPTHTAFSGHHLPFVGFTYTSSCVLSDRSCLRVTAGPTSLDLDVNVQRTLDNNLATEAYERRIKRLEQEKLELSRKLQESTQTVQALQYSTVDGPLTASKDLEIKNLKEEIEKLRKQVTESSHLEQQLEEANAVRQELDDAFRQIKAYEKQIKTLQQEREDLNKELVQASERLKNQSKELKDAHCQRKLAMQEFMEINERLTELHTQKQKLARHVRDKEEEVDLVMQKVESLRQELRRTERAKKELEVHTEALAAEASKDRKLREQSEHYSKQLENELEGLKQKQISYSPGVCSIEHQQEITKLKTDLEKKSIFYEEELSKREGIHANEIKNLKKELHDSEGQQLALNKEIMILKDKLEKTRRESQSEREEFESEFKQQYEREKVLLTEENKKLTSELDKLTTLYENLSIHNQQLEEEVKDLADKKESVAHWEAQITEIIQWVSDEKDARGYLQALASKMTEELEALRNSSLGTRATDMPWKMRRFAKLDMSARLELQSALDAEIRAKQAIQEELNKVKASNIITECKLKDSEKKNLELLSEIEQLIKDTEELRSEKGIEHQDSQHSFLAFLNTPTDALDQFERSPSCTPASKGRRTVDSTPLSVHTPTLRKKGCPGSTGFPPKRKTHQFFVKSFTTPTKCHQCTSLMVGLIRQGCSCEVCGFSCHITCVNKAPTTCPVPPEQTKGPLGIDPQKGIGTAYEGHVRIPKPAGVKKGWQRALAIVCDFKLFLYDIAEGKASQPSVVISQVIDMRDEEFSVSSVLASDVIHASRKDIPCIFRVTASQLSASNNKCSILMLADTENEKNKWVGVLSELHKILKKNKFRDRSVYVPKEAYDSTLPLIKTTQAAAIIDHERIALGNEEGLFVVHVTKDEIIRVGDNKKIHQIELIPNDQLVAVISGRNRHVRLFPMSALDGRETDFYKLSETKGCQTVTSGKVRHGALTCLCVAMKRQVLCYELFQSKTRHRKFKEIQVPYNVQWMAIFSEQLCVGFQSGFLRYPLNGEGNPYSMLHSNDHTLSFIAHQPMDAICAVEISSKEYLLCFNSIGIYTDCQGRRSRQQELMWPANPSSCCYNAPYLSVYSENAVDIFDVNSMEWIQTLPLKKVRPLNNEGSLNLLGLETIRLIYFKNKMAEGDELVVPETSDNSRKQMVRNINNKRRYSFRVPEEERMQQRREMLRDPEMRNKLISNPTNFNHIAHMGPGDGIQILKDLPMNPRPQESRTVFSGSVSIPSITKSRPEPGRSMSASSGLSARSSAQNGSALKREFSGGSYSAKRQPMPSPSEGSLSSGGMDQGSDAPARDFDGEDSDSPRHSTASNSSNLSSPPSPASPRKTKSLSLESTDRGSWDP
# PIM3 = PIM3 (Homo sapiens (Human), UniProt Q86V86)
# MUSK = MUSK (Homo sapiens (Human), UniProt O15146)
# RET = RET (Homo sapiens (Human), UniProt P07949)
# PRKCQ = PRKCQ (Homo sapiens (Human), UniProt Q04759)
# ULK1 = ULK1 (Homo sapiens (Human), UniProt O75385)
# SBK1 = SBK1 (Homo sapiens (Human), UniProt Q52WX2)
# FGFR1 = FGFR1 (Homo sapiens (Human), UniProt P11362)
# ERN1 = ERN1 (Homo sapiens (Human), UniProt O75460)
# VEGFR2 = VEGFR2 (Homo sapiens (Human), UniProt P35968)
# EGFR (L858R) = EGFR (L858R) (Homo sapiens (Human), UniProt P00533, L858R)
# PRKD3 = PRKD3 (Homo sapiens (Human), UniProt O94806)
# ICK = ICK (Homo sapiens (Human), UniProt Q9UPZ9)
# TIE1 = TIE1 (Homo sapiens (Human), UniProt P35590)
# AKT2 = AKT2 (Homo sapiens (Human), UniProt P31751)
# FAK = FAK (Homo sapiens (Human), UniProt Q05397)
# [1] = biological target: ABL1 (E255K)-phosphorylated (Homo sapiens (Human), UniProt P00519, E255K)
# [2] = biological target: ABL1 (T315I)-phosphorylated (Homo sapiens (Human), UniProt P00519, T315I)
# JNK3 = JNK3 (Homo sapiens (Human), UniProt P53779)
# JNK3, sequence (P53779 whole entry): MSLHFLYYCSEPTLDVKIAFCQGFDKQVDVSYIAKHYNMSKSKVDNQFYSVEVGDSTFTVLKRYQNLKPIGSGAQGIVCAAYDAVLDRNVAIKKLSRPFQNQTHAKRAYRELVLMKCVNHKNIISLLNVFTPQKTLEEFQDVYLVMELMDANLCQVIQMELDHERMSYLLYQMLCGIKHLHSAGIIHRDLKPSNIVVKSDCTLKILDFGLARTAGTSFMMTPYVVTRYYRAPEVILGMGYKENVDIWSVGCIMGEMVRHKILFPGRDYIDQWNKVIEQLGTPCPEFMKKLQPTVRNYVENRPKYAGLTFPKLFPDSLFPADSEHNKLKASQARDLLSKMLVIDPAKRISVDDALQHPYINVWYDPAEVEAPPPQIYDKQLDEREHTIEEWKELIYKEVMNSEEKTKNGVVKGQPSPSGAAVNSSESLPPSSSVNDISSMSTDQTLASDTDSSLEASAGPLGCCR
# [3] = biological target: RPS6KA4 (Kin.Dom.1-N-terminal) (Homo sapiens (Human), UniProt O75676)
# RPS6KA4 (Kin.Dom.1-N-terminal), sequence (O75676 33-301): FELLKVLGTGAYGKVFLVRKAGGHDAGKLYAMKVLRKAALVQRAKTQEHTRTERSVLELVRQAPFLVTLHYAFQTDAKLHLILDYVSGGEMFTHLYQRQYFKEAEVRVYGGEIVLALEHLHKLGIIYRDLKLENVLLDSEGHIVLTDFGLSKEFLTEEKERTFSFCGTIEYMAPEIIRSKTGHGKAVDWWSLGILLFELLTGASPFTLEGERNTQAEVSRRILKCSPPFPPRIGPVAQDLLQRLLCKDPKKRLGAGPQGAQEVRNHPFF
# YANK3 = YANK3 (Homo sapiens (Human), UniProt Q86UX6)
# CAMK4 = CAMK4 (Homo sapiens (Human), UniProt Q16566)
# EPHA5 = EPHA5 (Homo sapiens (Human), UniProt P54756)
# EPHA5, sequence (P54756 25-1037): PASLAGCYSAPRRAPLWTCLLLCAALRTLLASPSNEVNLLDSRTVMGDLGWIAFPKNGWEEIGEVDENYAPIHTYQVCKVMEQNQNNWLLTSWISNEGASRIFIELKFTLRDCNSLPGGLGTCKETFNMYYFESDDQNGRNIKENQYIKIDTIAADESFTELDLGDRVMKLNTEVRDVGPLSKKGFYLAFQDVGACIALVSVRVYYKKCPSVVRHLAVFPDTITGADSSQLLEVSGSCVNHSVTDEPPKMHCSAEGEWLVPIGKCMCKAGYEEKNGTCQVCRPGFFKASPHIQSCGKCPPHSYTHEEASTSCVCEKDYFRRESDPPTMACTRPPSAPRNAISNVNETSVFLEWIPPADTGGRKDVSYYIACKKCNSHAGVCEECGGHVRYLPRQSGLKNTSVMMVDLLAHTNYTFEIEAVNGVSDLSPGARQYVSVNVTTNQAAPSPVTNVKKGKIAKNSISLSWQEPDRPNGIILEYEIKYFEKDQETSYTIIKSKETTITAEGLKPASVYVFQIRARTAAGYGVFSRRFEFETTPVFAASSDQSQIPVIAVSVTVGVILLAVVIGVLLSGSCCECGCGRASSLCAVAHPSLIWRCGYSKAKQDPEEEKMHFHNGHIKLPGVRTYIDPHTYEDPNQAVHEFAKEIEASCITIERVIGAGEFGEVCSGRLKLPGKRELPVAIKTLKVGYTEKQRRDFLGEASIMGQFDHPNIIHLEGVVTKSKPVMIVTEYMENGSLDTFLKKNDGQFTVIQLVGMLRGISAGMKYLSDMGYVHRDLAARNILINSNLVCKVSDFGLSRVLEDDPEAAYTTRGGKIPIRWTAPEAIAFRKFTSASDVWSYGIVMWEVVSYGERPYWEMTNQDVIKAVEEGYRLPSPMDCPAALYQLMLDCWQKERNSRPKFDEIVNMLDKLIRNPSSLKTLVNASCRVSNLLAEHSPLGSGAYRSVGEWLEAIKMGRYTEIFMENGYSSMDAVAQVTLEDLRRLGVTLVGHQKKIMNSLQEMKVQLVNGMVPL
# PRKCI = PRKCI (Homo sapiens (Human), UniProt P41743)
# PRKCI, sequence (P41743 whole entry): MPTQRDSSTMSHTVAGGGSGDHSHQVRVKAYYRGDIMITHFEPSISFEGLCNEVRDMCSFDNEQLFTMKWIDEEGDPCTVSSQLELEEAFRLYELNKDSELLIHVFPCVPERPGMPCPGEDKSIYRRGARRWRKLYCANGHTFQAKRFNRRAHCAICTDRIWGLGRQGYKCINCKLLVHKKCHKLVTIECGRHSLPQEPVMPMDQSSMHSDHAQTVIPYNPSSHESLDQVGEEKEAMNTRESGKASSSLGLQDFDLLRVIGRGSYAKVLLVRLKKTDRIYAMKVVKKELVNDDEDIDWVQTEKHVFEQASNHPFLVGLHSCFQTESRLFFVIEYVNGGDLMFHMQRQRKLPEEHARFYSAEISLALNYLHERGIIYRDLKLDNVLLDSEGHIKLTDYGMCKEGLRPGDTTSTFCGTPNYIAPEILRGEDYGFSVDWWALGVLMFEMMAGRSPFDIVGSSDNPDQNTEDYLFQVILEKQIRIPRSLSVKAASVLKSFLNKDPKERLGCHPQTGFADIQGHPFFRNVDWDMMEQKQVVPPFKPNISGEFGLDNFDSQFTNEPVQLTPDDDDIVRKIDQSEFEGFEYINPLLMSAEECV
# p38-alpha = p38-alpha (Homo sapiens (Human), UniProt Q16539)
# MET = MET (Homo sapiens (Human), UniProt P08581)
# CSNK1A1L = CSNK1A1L (Homo sapiens (Human), UniProt Q8N752)
# QSK = QSK (Homo sapiens (Human), UniProt Q9Y2K2)
# MEK3 = MEK3 (Homo sapiens (Human), UniProt P46734)
# STK39 = STK39 (Homo sapiens (Human), UniProt Q9UEW8)
# PIP5K1A = PIP5K1A (Homo sapiens (Human), UniProt Q99755)
# PIP5K1A, sequence (Q99755 whole entry): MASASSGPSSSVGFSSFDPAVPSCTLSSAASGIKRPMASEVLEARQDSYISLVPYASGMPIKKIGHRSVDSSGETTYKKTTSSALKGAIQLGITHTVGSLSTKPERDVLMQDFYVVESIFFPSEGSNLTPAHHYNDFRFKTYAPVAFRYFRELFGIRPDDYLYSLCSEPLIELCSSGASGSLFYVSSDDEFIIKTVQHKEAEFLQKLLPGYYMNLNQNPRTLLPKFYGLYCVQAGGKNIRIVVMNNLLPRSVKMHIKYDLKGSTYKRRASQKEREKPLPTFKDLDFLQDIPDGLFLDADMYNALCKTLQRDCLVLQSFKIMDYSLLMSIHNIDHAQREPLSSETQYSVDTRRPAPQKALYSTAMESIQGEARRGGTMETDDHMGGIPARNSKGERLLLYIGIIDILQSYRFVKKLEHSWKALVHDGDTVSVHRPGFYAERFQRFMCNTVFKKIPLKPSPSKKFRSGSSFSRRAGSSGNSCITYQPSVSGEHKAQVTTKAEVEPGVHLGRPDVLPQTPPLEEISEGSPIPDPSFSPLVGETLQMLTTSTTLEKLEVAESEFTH
# FGR = FGR (Homo sapiens (Human), UniProt P09769)
compound,measurement,setting,value
COc1ccc(N2C(=O)N(c3c(C)cccc3C)Cc3cnc(Nc4ccc(N5CCN(C)CC5)cc4)nc32)c(OC)c1 [HG-11-136-01],KINOMEscan ERK4,ERK4,95
same,KINOMEscan FGFR3,FGFR3,0.95
same,KINOMEscan PLK4,PLK4,18
same,KINOMEscan TRKB,TRKB,63
same,KINOMEscan FER,FER,0.1
same,KINOMEscan ABL1-phosphorylated,ABL1-phosphorylated,0
same,KINOMEscan PRKD1,PRKD1,3.6
same,KINOMEscan GRK7,GRK7,96
same,KINOMEscan LATS1,LATS1,100
same,KINOMEscan MRCKA,MRCKA,99
same,KINOMEscan PIM3,PIM3,90
same,KINOMEscan MUSK,MUSK,86
same,KINOMEscan RET,RET,0
same,KINOMEscan PRKCQ,PRKCQ,80
same,KINOMEscan ULK1,ULK1,3.2
same,KINOMEscan SBK1,SBK1,6.6
same,KINOMEscan FGFR1,FGFR1,0.15
same,KINOMEscan ERN1,ERN1,13
same,KINOMEscan VEGFR2,VEGFR2,1.8
same,KINOMEscan EGFR (L858R),EGFR (L858R),0.1
same,KINOMEscan PRKD3,PRKD3,5.4
same,KINOMEscan ICK,ICK,61
same,KINOMEscan TIE1,TIE1,30
same,KINOMEscan AKT2,AKT2,100
same,KINOMEscan FAK,FAK,24
same,KINOMEscan ABL1 (E255K)-phosphorylated,[1],0.4
same,KINOMEscan ABL1 (T315I)-phosphorylated,[2],1.2
same,KINOMEscan JNK3,JNK3,32
same,KINOMEscan RPS6KA4 (Kin.Dom.1-N-terminal),[3],79
same,KINOMEscan YANK3,YANK3,32
same,KINOMEscan CAMK4,CAMK4,100
same,KINOMEscan EPHA5,EPHA5,0.6
same,KINOMEscan PRKCI,PRKCI,63
same,KINOMEscan p38-alpha,p38-alpha,1
same,KINOMEscan MET,MET,66
same,KINOMEscan CSNK1A1L,CSNK1A1L,97
same,KINOMEscan QSK,QSK,0.25
same,KINOMEscan MEK3,MEK3,6.4
same,KINOMEscan STK39,STK39,28
same,KINOMEscan PIP5K1A,PIP5K1A,14
same,KINOMEscan FGR,FGR,0
